Broadly, the IC50 is the concentration that inhibits the measured activity by half. Lower therefore signals greater potency. The term melting point denotes the temperature, or range, at which the solid turns liquid.

Structures are written as SMILES. Bounds are passed on as bounds.

Consider 27 molecules from patent US9233965B2, “3,4-dihydropyrrolo[1,2-A]pyrazine-2,8(1H)-dicarboxamide derivatives, preparation thereof and therapeutic use thereof for diseases involving casein kinase 1 epsilon and/or casein kinase 1 delta” (SANOFI, priority 2010, dated 2016).

Data set [1] addresses casein kinase 1 epsilon (CK1 epsilon) (Homo sapiens (Human), UniProt P49674). The data set is described as follows: Test A: inhibitory activity on CK1 epsilon, casein phosphorylation assay on ATP-33P filter plate. The format is biochemical. Particulars: IC50 values or IC50 ranges (result of several experiments), ATP 10 μM final. Summed up:
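Human CK1 epsilon (3 ng/μL final) phosphorylates dephosphorylated casein (0.2 μg/μL) with ATP-33P plus 10 μM cold ATP (KM for ATP 21 μM), 2 h at room temperature, pH 7.5 Tris buffer. TCA-precipitated protein counted by scintillation; compounds at 10 to 0.001 μM give IC50 values or % inhibition at 10 μM.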

casein kinase 1 epsilon (CK1 epsilon), sequence (P49674 whole entry): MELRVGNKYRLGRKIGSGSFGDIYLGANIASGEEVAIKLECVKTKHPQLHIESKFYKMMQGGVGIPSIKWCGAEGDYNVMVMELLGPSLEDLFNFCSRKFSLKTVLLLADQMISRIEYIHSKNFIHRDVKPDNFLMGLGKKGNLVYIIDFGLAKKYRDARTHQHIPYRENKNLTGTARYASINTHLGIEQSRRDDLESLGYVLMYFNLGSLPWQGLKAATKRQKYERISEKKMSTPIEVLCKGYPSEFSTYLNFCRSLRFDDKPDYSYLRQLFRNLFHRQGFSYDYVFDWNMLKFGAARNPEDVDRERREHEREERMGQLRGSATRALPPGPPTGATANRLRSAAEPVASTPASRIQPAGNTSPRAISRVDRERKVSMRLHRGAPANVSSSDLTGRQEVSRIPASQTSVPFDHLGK

For the molecule `CC(C)CCNC(=O)N1CCn2c(Cl)c(-c3ccccc3)c(C(N)=O)c2C1` [Compound 69, 6-chloro-N^2-(3-methylbutyl)-7-phenyl-3,4-dihydropyrrolo[1,2-a]pyrazine-2,8(1H)-dicarboxamide], the melting point was in the range of 154 to 155 °C. The same molecule came in with an IC50 in data set [1] of 5 nM.
For `CC(C)(CO)CNC(=O)N1CCn2c(Cl)c(-c3cccc(F)c3)c(C(N)=O)c2C1` [Compound 73, 6-chloro-7-(3-fluorophenyl)-N^2-(3-hydroxy-2,2-dimethylpropyl)-3,4-dihydropyrrolo[1,2-a]pyrazine-2,8(1H)-dicarboxamide], in that order: 205 to 207 °C and 1 to 11 nM.
For `CC(C)(CO)CNC(=O)N1CCn2c(Cl)c(-c3cccc(C(F)(F)F)c3)c(C(N)=O)c2C1` [Compound 74, 6-chloro-N^2-(3-hydroxy-2,2-dimethylpropyl)-7-(3-trifluoromethyl-phenyl)-3,4-dihydropyrrolo[1,2-a]pyrazine-2,8(1H)-dicarboxamide], in that order: 185 to 187 °C and 6 nM.
On the same counts, the results for `NC(=O)c1c(-c2cccc(F)c2)c(Cl)n2c1CN(C(=O)NCC1(CO)CC1)CC2` [Compound 75, 6-chloro-7-(3-fluorophenyl)-N^2-{[1-(hydroxymethyl)cyclo-propyl]methyl}-3,4-dihydropyrrolo[1,2-a]pyrazine-2,8(1H)-dicarboxamide] are 204 to 206 °C and 4 to 5 nM.
For `NC(=O)c1c(-c2ccccc2)c(Cl)n2c1CN(C(=O)NCC(F)(F)F)CC2` [Compound 76, 6-chloro-7-phenyl-N^2-(2,2,2-trifluoroethyl)-3,4-dihydropyrrolo[1,2-a]pyrazine-2,8(1H)-dicarboxamide], the melting point lay within 210 to 213 °C. In addition, the concentration for half-maximal inhibition (IC50) in data set [1] is 10 to 27 nM.
For `NC(=O)c1c(-c2cccc(F)c2)c(Cl)n2c1CN(C(=O)NCC(F)(F)F)CC2` [Compound 77, 6-chloro-7-(3-fluorophenyl)-N^2-(2,2,2-trifluoroethyl)-3,4-dihydropyrrolo[1,2-a]pyrazine-2,8(1H)-dicarboxamide], in that order: 208 to 213 °C and 2 to 8 nM.
On the same counts, the results for `C[C@H](NC(=O)N1CCn2c(Cl)c(-c3cccc(F)c3)c(C(N)=O)c2C1)C(F)(F)F` [Compound 78, 6-chloro-7-(3-fluorophenyl)-N^2-[(2S)-1,1,1-trifluoropropan-2-yl]-3,4-dihydropyrrolo[1,2-a]pyrazine-2,8(1H)-dicarboxamide] are 190 to 193 °C and 3 nM.
For `CC(C)(NC(=O)N1CCn2c(Cl)c(-c3cccc(F)c3)c(C(N)=O)c2C1)C(F)(F)F` [Compound 79, 6-chloro-7-(3-fluorophenyl)-N^2-(1,1,1-trifluoro-2-methylpropan-2-yl)-3,4-dihydropyrrolo[1,2-a]pyrazine-2,8(1H)-dicarboxamide], in that order: 183 to 187 °C and 1 to 4 nM.
`NC(=O)c1c(-c2cccc(F)c2)c(Cl)n2c1CN(C(=O)NCCC(F)(F)F)CC2` [Compound 80, 6-chloro-7-(3-fluorophenyl)-N^2-(3,3,3-trifluoropropyl)-3,4-dihydropyrrolo[1,2-a]pyrazine-2,8(1H)-dicarboxamide] came in with a melting point of 119 to 124 °C. In data set [1], the half-maximal inhibitory concentration (IC50) fell in the range of 2 to 16 nM.
For `NC(=O)c1c(-c2ccccc2)c(Cl)n2c1CN(C(=O)NC1CCCCC1)CC2` [Compound 82, 6-chloro-N^2-cyclo-hexyl-7-phenyl-3,4-dihydropyrrolo[1,2-a]pyrazine-2,8(1H)-dicarboxamide], in that order: 208 to 209 °C and 1 to 7 nM.
On the same counts, the results for `NC(=O)c1c(-c2cccc(F)c2)c(Cl)n2c1CN(C(=O)N[C@H]1CC[C@H](O)CC1)CC2` [Compound 83, trans-6-chloro-7-(3-fluorophenyl)-N^2-(4-hydroxy-cyclo-hexyl)-3,4-dihydropyrrolo[1,2-a]pyrazine-2,8(1H)-dicarboxamide] are 251 to 253 °C and 2 to 4 nM.
For `NC(=O)c1c(-c2cccc(F)c2)c(Cl)n2c1CN(C(=O)NC1CCC(F)(F)CC1)CC2` [Compound 89, 6-chloro-N^2-(4,4-difluoro-cyclo-hexyl)-7-(3-fluorophenyl)-3,4-dihydropyrrolo[1,2-a]pyrazine-2,8(1H)-dicarboxamide], in that order: 212 to 214 °C and 1 to 3 nM.
`NC(=O)c1c(-c2cccc(F)c2)c(Cl)n2c1CN(C(=O)NC1COC1)CC2` [Compound 90, 6-chloro-7-(3-fluorophenyl)-N^2-(oxetan-3-yl)-3,4-dihydropyrrolo[1,2-a]pyrazine-2,8(1H)-dicarboxamide] yielded a melting point of 184 to 186 °C. The IC50 in data set [1] is 6 to 7 nM.
On the same counts, the results for `CC1(CNC(=O)N2CCn3c(Cl)c(-c4cccc(F)c4)c(C(N)=O)c3C2)COC1` [Compound 91, 6-chloro-7-(3-fluorophenyl)-N^2-(3-methyl-oxetan-3-ylmethyl)-3,4-dihydropyrrolo[1,2-a]pyrazine-2,8(1H)-dicarboxamide] are 249 to 253 °C and 4 nM.
For `NC(=O)c1c(-c2ccccc2)c(Cl)n2c1CN(C(=O)NC1CCOC1)CC2` (stereo not drawn) [Compound 92, 6-chloro-7-phenyl-N^2-(tetrahydrofuran-3-yl)-3,4-dihydropyrrolo[1,2-a]pyrazine-2,8(1H)-dicarboxamide], in that order: 181 to 185 °C and 11 to 13 nM.
On the same counts, the results for `NC(=O)c1c(-c2ccccc2)c(Cl)n2c1CN(C(=O)NC1CCOCC1)CC2` [Compound 93, 6-chloro-7-phenyl-N^2-(tetrahydro-2H-pyran-4-yl)-3,4-dihydropyrrolo[1,2-a]pyrazine-2,8(1H)-dicarboxamide] are 227 to 229 °C and 21 to 28 nM.
As for `Cc1cccc(-c2c(C(N)=O)c3n(c2Cl)CCN(C(=O)NC2CCOCC2)C3)c1` [Compound 94, 6-chloro-7-(3-methylphenyl)-N^2-(tetrahydro-2H-pyran-4-yl)-3,4-dihydropyrrolo[1,2-a]pyrazine-2,8(1H)-dicarboxamide], the melting point lay in the range of 231 to 234 °C. The molecule further came in with an IC50 in data set [1] of 2 to 18 nM.
`N#Cc1cccc(-c2c(C(N)=O)c3n(c2Cl)CCN(C(=O)NC2CCOCC2)C3)c1` [Compound 95, 6-chloro-7-(3-cyanophenyl)-N^2-(tetrahydro-2H-pyran-4-yl)-3,4-dihydropyrrolo[1,2-a]pyrazine-2,8(1H)-dicarboxamide] showed a melting point of 236 to 238 °C. In data set [1], this molecule had an IC50 of 6 nM.
On the same counts, the results for `NC(=O)c1c(-c2cccc(C(F)(F)F)c2)c(Cl)n2c1CN(C(=O)NC1CCOCC1)CC2` [Compound 96, 6-chloro-N^2-(tetrahydro-2H-pyran-4-yl)-7-[3-(trifluoromethyl)phenyl]-3,4-dihydropyrrolo[1,2-a]pyrazine-2,8(1H)-dicarboxamide] are 220 to 222 °C and 19 nM.
On the same counts, the results for `NC(=O)c1c(-c2cccc(OC(F)(F)F)c2)c(Cl)n2c1CN(C(=O)NC1CCOCC1)CC2` [Compound 97, 6-chloro-N^2-(tetrahydro-2H-pyran-4-yl)-7-[3-(trifluoromethoxy)phenyl]-3,4-dihydropyrrolo[1,2-a]pyrazine-2,8(1H)-dicarboxamide] are 203 to 205 °C and 122 nM.
On the same counts, the results for `NC(=O)c1c(-c2cccc(F)c2)c(Cl)n2c1CN(C(=O)NC1CCOCC1)CC2` [Compound 98, 6-chloro-7-(3-fluorophenyl)-N^2-(tetrahydro-2H-pyran-4-yl)-3,4-dihydropyrrolo[1,2-a]pyrazine-2,8(1H)-dicarboxamide] are 223 to 225 °C and 2 to 16 nM.
`CC1(C)CC(NC(=O)N2CCn3c(Cl)c(-c4cccc(F)c4)c(C(N)=O)c3C2)CCO1` (stereo not drawn) [Compound 99, 6-chloro-7-(3-fluorophenyl)-N^2-(2,2-dimethyl-tetrahydro-2H-pyran-4-yl)-3,4-dihydropyrrolo[1,2-a]pyrazine-2,8(1H)-dicarboxamide]: the melting point is 141 to 143 °C. The molecule also showed a concentration for half-maximal inhibition (IC50) in data set [1] of 4 nM.
For `CC(C)(C)NC(=O)N1CCn2c(Br)c(-c3cccc(F)c3)c(C(N)=O)c2C1` [Compound 104, 6-bromo-7-(3-fluorophenyl)-N^2-tert-butyl-3,4-dihydropyrrolo[1,2-a]pyrazine-2,8(1H)-dicarboxamide], in that order: 184 to 189 °C and less than 1 nM.
On the same counts, the results for `CC(C)(C)NC(=O)N1CCn2c(C#N)c(-c3cccc(F)c3)c(C(N)=O)c2C1` [Compound 105, 6-cyano-7-(3-fluorophenyl)-N^2-(tert-butyl)-3,4-dihydropyrrolo[1,2-a]pyrazine-2,8(1H)-dicarboxamide] are more than 217 °C and 1 nM.
The molecule `C[C@H](NC(=O)N1CCn2c(C#N)c(-c3cccc(F)c3)c(C(N)=O)c2C1)C(F)(F)F` [Compound 106, 6-cyano-7-(3-fluorophenyl)-N^2-((2S)-1,1,1-trifluoropropan-2-yl)-3,4-dihydropyrrolo[1,2-a]pyrazine-2,8(1H)-dicarboxamide] showed a melting point of 176 to 178 °C. Moreover, in data set [1], half-maximal inhibition (IC50) was put at 2 nM.
For `CC(C)(NC(=O)N1CCn2c(C#N)c(-c3cccc(F)c3)c(C(N)=O)c2C1)C(F)(F)F` [Compound 107, 6-cyano-7-(3-fluorophenyl)-N^2-(1,1,1-trifluoro-2-methylpropan-2-yl)-3,4-dihydropyrrolo[1,2-a]pyrazine-2,8(1H)-dicarboxamide], in that order: 202 to 204 °C and less than 1 nM.
Consider `N#Cc1c(-c2cccc(F)c2)c(C(N)=O)c2n1CCN(C(=O)NCCCC(F)(F)F)C2` [Compound 108, 6-cyano-7-(3-fluorophenyl)-N^2-(4,4,4-trifluoro-butyl)-3,4-dihydropyrrolo[1,2-a]pyrazine-2,8(1H)-dicarboxamide], for which the melting point fell in the range of 169 to 171 °C. Further, in data set [1], the midpoint of inhibition, the IC50, lay at 4 nM.
